Paper PMC3763812 (Chemical research in toxicology, 2013)
Entries after “also recorded” stand apart in the source; their conditions may differ.

What was measured:
[1] = tested on: ds-DNA in DNA/RuPVP/1B1 films (cyt P450 1B1 supersomes); test: ECL genotoxicity array, DNA/RuPVP/1B1 films; type: biochemical, human; conditions: 25 μM B[a]P or 50 μM B[ghi]P with NADPH
[2] = tested on: ds-DNA in DNA/RuPVP/1A2 films (cyt P450 1A2 supersomes); test: ECL genotoxicity array, DNA/RuPVP/1A2 films; type: biochemical, human; conditions: 25 μM B[a]P or 50 μM B[ghi]P with NADPH
[3] = tested on: DNA in PDDA/supersomes/PDDA/DNA biocolloids (1A1 and 1B1 supersomes); type: biochemical, human; conditions: 20-mins reaction of B[ghi]P with biocolloid enzyme/DNA reactors
[4] = tested on: ds-DNA with cyt P4501A1, 1B1 and 1A2 supersomes; conditions: electro-optical toxicity screening arrays
[5] = with exogenous activation; cited from earlier work
[6] = tested on: mouse skin; conditions: cited from earlier work
[7] = tested on: DNA; conditions: activated by light without metabolic activation; cited from earlier work
[8] = tested on: DNA; conditions: in vivo and in vitro; cited from earlier work

## c1cc2ccc3ccc4ccc5cccc6c(c1)c2c3c4c56 [B[ghi]P, benzo[ghi]perylene]
[1]
  Normalized ECL turnover rate (R): 34.3 μg^−1•protein•min^−1•mM
[2]
  Normalized ECL turnover rate (R): 23.3 μg^−1•protein•min^−1•mM
[3]
  Detection of DNA adducts of B[ghi]P 3,4-oxide (mass transitions of Table 3): no peaks were found
[4]
  Lower rate of DNA damage by B[ghi]P metabolites than benzo[a]pyrene: 3 fold
[5]
  Mutagenicity in the Ames test: displays mutagenicity
[6]
  Tumor initiation: not found to initiate tumors; also recorded: negative
[7]
  DNA damage in Comet assays: yielded DNA damage
[8]
  Binding of active metabolites to DNA: active metabolites can bind to DNA
